This is an account of results in patent US20090069317A1, “Insecticidal Methods Using 3-Amino-1,2-Benzisothiazole Derivatives” (BASF SE, priority 2005, published 2009).

A value given as a limit tells only on which side of the number the result lay.

The subject of series [1] is Cotton Aphid (Aphis gossypii). Description: Cotton aphid (Aphis gossypii) cotyledon dip test, mortality. The class given is in vivo. The note with it: 120 h, cotton cotyledons dipped, mortality counts after 5 days, read-out: mortality in comparison with untreated controls. The text has this:
B.1 Cotton Aphid (Aphis gossypii)
(§1) The active compounds were formulated in 50:50 acetone:water and 100 ppm Kinetic® surfactant.
Cotton plants at the cotyledon stage (one plant per pot) were infested by placing a heavily infested leaf from the main colony on top of each cotyledon. The aphids were allowed to transfer to the host plant overnight, and the leaf used to transfer the aphids was removed. The cotyledons were dipped in the test solution and allowed to dry. After 5 days, mortality counts were made.

The test system of series [2] is Green Peach Aphid (Myzus Persicae). Description: Green peach aphid (Myzus persicae) pepper leaf dip test, mortality. The class given is in vivo. The settings on record: foliar, 120 h, pepper plant leaves dipped, aphid mortality after 5 days, read-out: mortality in comparison with untreated controls.
From the text: B.2 Green Peach Aphid (Myzus Persicae)
as §1
Pepper plants in the 2nd leaf-pair stage (variety ‘California Wonder’) were infested with approximately 40 laboratory-reared aphids by placing infested leaf sections on top of the test plants. The leaf sections were removed after 24 hr. The leaves of the intact plants were dipped into gradient solutions of the test compound and allowed to dry. Test plants were maintained under fluorescent light (24 hour photoperiod) at about 25° C. and 20-40% relative humidity. Aphid mortality on the treated plants, relative to mortality on check plants, was determined after 5 days.

In series [3] the test system is Bean Aphid (Aphis fabae). In words: Bean aphid (Aphis fabae) nasturtium plant dip test, mortality. The note with it: 72 h, nasturtium plants dipped, aphid mortality after 3 days, read-out: mortality in comparison with untreated controls. The class given is in vivo.
From the text: B.3. Bean Aphid (Aphis fabae)
as §1
Nasturtium plants grown in Metro mix in the 1st leaf-pair stage (variety ‘Mixed Jewel’) were infested with approximately 20-30 laboratory-reared aphids by placing infested cut plants on top of the test plants. The cut plants were removed after 24 hr. Each plant was dipped into the test solution to provide complete coverage of the foliage, stem, protruding seed surface and surrounding cube surface and allowed to dry in the fume hood. The treated plants were kept at about 25° C. with continuous fluorescent light. Aphid mortality is determined after 3 days.

Consider `CCN(CC)C1=NS(=O)(=O)c2cccc(Cl)c21` [Compound 3], for which the mortality at 300 ppm in series [1], in series [2] and in series [3] was more than 86% in each case.

With `C#CCN(C1=NS(=O)(=O)c2cccc(Cl)c21)C(C)C` [Compound 4], the mortality at 300 ppm in series [1] and in series [3] was more than 86% each time.

On to `CCN(CC(C)C)C1=NS(=O)(=O)c2cccc(Cl)c21` [Compound 5], for which the mortality at 300 ppm in series [1] and in series [3] was more than 86% each time.

With `CC(C)N(C1=NS(=O)(=O)c2cccc(Cl)c21)C1CC1` [Compound 6], the mortality at 300 ppm in series [1], in series [2] and in series [3] was more than 86% in each case.

Regarding `CCN(C)C1=NS(=O)(=O)c2cccc(Cl)c21` [Compound 7], the mortality at 300 ppm in series [1], in series [2] and in series [3] was more than 86% each time.

For `C=CCN(CCC)C1=NS(=O)(=O)c2cccc(Cl)c21` [Compound 8], the mortality at 300 ppm in series [1] and in series [3] was more than 86% in each case.

For `C=CCN(C1=NS(=O)(=O)c2cccc(Cl)c21)C(C)C` [Compound 9], the mortality at 300 ppm in series [1] and in series [3] was more than 86% in each case.

For `CC(C)N(C1=NS(=O)(=O)c2cccc(Cl)c21)C(C)C` [Compound 11], in series [3], the mortality (in general, the share of the test organisms that died) at 300 ppm was more than 86%.

As to `CCN(Cc1ccccc1)C1=NS(=O)(=O)c2cccc(Cl)c21` [Compound 12], the mortality at 300 ppm in series [3] was more than 86%.

In the case of `CN(CC#N)C1=NS(=O)(=O)c2cccc(Cl)c21` [Compound 15], the mortality at 300 ppm in series [1], in series [2] and in series [3] was more than 86% in each case.

As to `CON(C)C1=NS(=O)(=O)c2cccc(Cl)c21` [Compound 23], the mortality at 300 ppm in series [1], in series [2] and in series [3] was more than 86% throughout.

In the case of `C#CCN(C1=NS(=O)(=O)c2cccc(OC(F)F)c21)C(C)C` [Compound 36], the mortality at 300 ppm in series [1], in series [2] and in series [3] was more than 86% each time.

On to `CN(C)c1nsc2cccc(Cl)c12` [Compound 49], for which the mortality at 300 ppm in series [1], in series [2] and in series [3] was more than 86% in each case.

As to `CCN(CC)c1nsc2cccc(OC(F)F)c12` [Compound 59], the melting point (as a rule, the temperature, or range, at which the solid turns liquid) was in the range of 49 to 50 °C.

Regarding `CCN(CC)c1nsc2cccc(OC)c12` [Compound 76], the mortality at 300 ppm in series [1] and in series [2] was more than 86% each time.

Regarding `CN(C)c1n[s+]([O-])c2cccc(Cl)c12` (stereo not drawn) [Compound 78], the mortality at 300 ppm in series [1] and in series [2] was more than 86% each time.

`CCN(C)c1nsc2cccc(OC(F)F)c12` [Compound 80]: the mortality at 300 ppm in series [1] and in series [2] was more than 86% each time.

For `CCN(C)c1nsc2cccc(OC)c12` [Compound 81], the mortality at 300 ppm in series [1] and in series [2] was more than 86% in each case.

`COc1cccc2snc(N(C)C(C)C)c12` [Compound 82]: the mortality at 300 ppm in series [1] and in series [2] was more than 86% each time.

Consider `COc1cccc2snc(N(C)CC(C)C)c12` [Compound 83], for which the mortality at 300 ppm in series [1] and in series [2] was more than 86% each time.

On to `CCN(C)c1n[s+]([O-])c2cccc(OC)c12` (stereo not drawn) [Compound 85], for which the mortality at 300 ppm in series [1] and in series [2] was more than 86% each time.

For `CC(C)N(C)c1nsc2cccc(Cl)c12` [Compound 86], the mortality at 300 ppm in series [1] and in series [2] was more than 86% throughout.

In the case of `CCCN(C)c1nsc2cccc(Cl)c12` [Compound 87], the mortality at 300 ppm in series [1] and in series [2] was more than 86% each time.

With `CCN(C)c1n[s+]([O-])c2cccc(Cl)c12` (stereo not drawn) [Compound 88], the mortality at 300 ppm in series [1] and in series [2] was more than 86% throughout.

With `CCN(CC)C1=NS(=O)(=O)c2c(F)ccc(OC)c21` [Compound 89], the mortality at 300 ppm in series [1] and in series [2] was more than 86% in each case.

As to `CCN(C)C1=NS(=O)(=O)c2c(F)ccc(OC)c21` [Compound 91], the mortality at 300 ppm in series [1] and in series [2] was more than 86% throughout.

Take `COc1cccc2snc(N(C)Cc3ccccc3)c12` [Compound 92]: the mortality at 300 ppm in series [1] and in series [2] was more than 86% throughout.

`CN(c1nsc2cccc(Cl)c12)C1CCCC1` [Compound 93]: the mortality at 300 ppm in series [1] and in series [2] was more than 86% throughout.

Take `COc1cccc2c1c(N(C)C)n[s+]2[O-]` (stereo not drawn) [Compound 94]: the mortality at 300 ppm in series [1] and in series [2] was more than 86% in each case.

On to `CCN(CC)c1n[s+]([O-])c2cccc(OC)c12` (stereo not drawn) [Compound 95], for which the mortality at 300 ppm in series [1] and in series [2] was more than 86% each time.

Regarding `COc1ccc(F)c2c1C(N(C)CC#N)=NS2(=O)=O` [Compound 96], the mortality at 300 ppm in series [1] and in series [2] was more than 86% each time.

As for `CC(C)N(O)C1=NS(=O)(=O)c2cccc(Cl)c21` [Compound 98], the mortality at 300 ppm in series [1] and in series [2] was more than 86% in each case.

`COc1ccc(F)c2c1C(N(C)OC)=NS2(=O)=O` [Compound 108]: the mortality at 300 ppm in series [1] and in series [2] was more than 86% in each case.

Regarding `CON(C)C1=NS(=O)(=O)c2cccc(OC(F)F)c21` [Compound 109], the mortality at 300 ppm in series [1] and in series [2] was more than 86% each time.

On to `CCON(C)C1=NS(=O)(=O)c2cccc(OC(F)F)c21` [Compound 110], for which the mortality at 300 ppm in series [1] and in series [2] was more than 86% each time.

As to `CCON(C1=NS(=O)(=O)c2cccc(OC(F)F)c21)C(C)C` [Compound 111], the mortality at 300 ppm in series [1] and in series [2] was more than 86% in each case.

Regarding `CCON(CC)C1=NS(=O)(=O)c2cccc(OC(F)F)c21` [Compound 112], the mortality at 300 ppm in series [1] and in series [2] was more than 86% throughout.
